Data taken from PubChem BioAssay AID1963986 (Molecular Pharmacology Branch, DTP, NCI, 2024).

Tested on: 171881-019-R-J1-PDC tumor spheroid viability
Assay: Anticancer human tumor 171881-019-R-J1-PDC patient-derived invasive breast carcinoma cell line growth inhibition [PI3K]
Conditions: spheroids with HUVEC and MSC; for IC50: curve of first compound; for viability, T/C: stronger effect = lower value
Description: Combinatorial screen of targeted agents with the PI3K inhibitors inavolisib, alpelisib, duvelisib, and copanlisib in multi-cell type tumor spheroids
A high-throughput screen of multi-cell type tumor spheroids was designed to identify active combinations of targeted small molecules and PI3K pathway inhibitors. Complex spheroids include a stromal component modeled by human endothelial cells (HUVEC) and fibroblasts modeled by human mesenchymal stem cells (MSCs). The concentration ranges selected for each drug and investigational agent were based upon clinically achievable concentrations if the clinical Cmax of the agent was known.
Compounds. The drugs and investigational agents: inavolisib (NSC800729), alpelisib (NSC765974), duvelisib (NSC772469), copanlisib (NSC816437), ipatasertib (NSC767898), afuresertib (NSC778305), talazoparib (NSC767125), sapanisertib (NSC764658), selumetinib (NSC741078), tovorafenib (DAY101, NSC766906), vemurafenib (NSC761431), ravoxertinib (NSC781343), sotorasib (NSC818433), MRTX1133 (NSC 836407), abemaciclib (NSC 768073), palbociclib (NSC758247), venetoclax (NSC 766270), SY5609 (NSC837396), enzalutamide (NSC755605), and darolutamide (NSC825331), were obtained from the National Cancer Institute (NCI) Developmental Therapeutics Program Chemical Repository. The FDA-approved anticancer drug set is available from the NCI Developmental Therapeutics Program. […] The stock solutions were prepared in dimethyl sulfoxide (DMSO, Sigma-Aldrich, St. Louis, MO, cat. D2650) at 800-fold the tested concentration and stored at -70 degrees C prior to their use. All drugs and investigational agents were tested over a range starting from a high concentration at or near the clinical Cmax and decreasing in half-log increments. If the clinical Cmax for an agent had not been determined, the highest concentration tested was 10 microM.
Cell Culture. All cells were maintained in an incubator at 37 degrees C and 5% CO2 with 95% humidity. The PDC lines were cultured according to standard operating procedures established by the NCI PDMR (https://pdmr.cancer.gov/sops/default.htm). All PDCs were thawed and cultured in Matrigel-coated flasks prepared with a working solution of 1X Ham's F-12 nutrient mix, without supplementation (Invitrogen, Waltham, MA, cat. 11765054), 100 U/mL penicillin-streptomycin (Invitrogen, cat. 15140122), and 2.5% Matrigel (Corning Inc., Corning, NY, cat. 354248) for the first three passages. The 354836-022-R-J1-PDC, 475296-252-R-J1-PDC, and 997726-040-R-J2-PDC lines were cultured in 6A media, which includes advanced DMEM/F-12 (Thermo Fisher Scientific, cat. 12634028), 10 mM HEPES (Thermo Fisher Scientific, cat. 15630080), 1X GlutaMAX supplement (Thermo Fisher Scientific, cat. 35050061), 0.1 mg/mL primocin (InvivoGen, San Diego, CA, cat. ant-pm-2), 10% defined fetal bovine serum, heat inactivated (HyClone Laboratories Inc., Logan, UT, cat. SH30070.03HI), 50% L-WRN conditioned media (ATCC, cat. CRL-3276), 1.25 mM N-Acetyl-L-cysteine (Sigma-Aldrich, cat. A9165), 10 mM nicotinamide (Sigma-Aldrich, cat. N0636), 1X B-27 supplement (Thermo Fisher Scientific, cat. 17504044), 1X N-2 supplement (Thermo Fisher Scientific, cat. 17502048), and 10 microM Y-27632 dihydrochloride (Tocris Bioscience, Bristol, United Kingdom, cat. 1254). The 624824-186-R-J2-PDC line was cultured in 6C/Colon 1B media, which includes all 6A media components plus 50 ng/mL human EGF recombinant protein (Thermo Fisher Scientific, cat. PHG0311). […]

[1] = second compound 0.00316 µM, first compound 0.0316 µM
[2] = second compound 0.00316 µM, first compound 0.1 µM
[3] = second compound 0.01 µM, first compound 0.0316 µM
[4] = second compound 0.01 µM, first compound 0.1 µM
[5] = second compound 0.0316 µM, first compound 0.0316 µM
[6] = second compound 0.0316 µM, first compound 0.1 µM
[7] = second compound 0.1 µM, first compound 0.0316 µM
[8] = second compound 0.1 µM, first compound 0.1 µM
[9] = second compound 0.316 µM, first compound 0.0316 µM
[10] = second compound 0.316 µM, first compound 0.1 µM
[11] = second compound 1 µM, first compound 0.0316 µM
[12] = second compound 1 µM, first compound 0.1 µM
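Further: spheroids exposed to compound for 7 days before viability read.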
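Wherever viability, T/C is given: 100% = DMSO vehicle-treated spheroids.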

## CC(=O)c1c(C)c2cnc(Nc3ccc(N4CCNCC4)cn3)nc2n(C2CCCC2)c1=O + CC(Nc1ccc2c(c1)OCCn1cc(N3C(=O)OCC3C(F)F)nc1-2)C(N)=O
Second compound 0.00316 µM
  IC50: > 100 nM
Second compound 0.01 µM
  IC50: > 100 nM
Second compound 0.0316 µM
  IC50: > 100 nM
Second compound 0.1 µM
  IC50: < 0.316 nM
Second compound 0.316 µM
  IC50: < 0.316 nM
Second compound 1 µM
  IC50: < 0.316 nM
Second compound 0.00316 µM, first compound 0.000316 µM
  viability, T/C: 85.7%
Second compound 0.00316 µM, first compound 0.001 µM
  viability, T/C: 85.3%
Second compound 0.00316 µM, first compound 0.00316 µM
  viability, T/C: 94.5%
Second compound 0.00316 µM, first compound 0.01 µM
  viability, T/C: 95.2%
[1]
  viability, T/C: 100%
[2]
  viability, T/C: 86.7%
Second compound 0.01 µM, first compound 0.000316 µM
  viability, T/C: 74.2%
Second compound 0.01 µM, first compound 0.001 µM
  viability, T/C: 82.3%
Second compound 0.01 µM, first compound 0.00316 µM
  viability, T/C: 78.5%
Second compound 0.01 µM, first compound 0.01 µM
  viability, T/C: 85.9%
[3]
  viability, T/C: 89.2%
[4]
  viability, T/C: 73%
Second compound 0.0316 µM, first compound 0.000316 µM
  viability, T/C: 50.3%
Second compound 0.0316 µM, first compound 0.001 µM
  viability, T/C: 58.7%
Second compound 0.0316 µM, first compound 0.00316 µM
  viability, T/C: 53.9%
Second compound 0.0316 µM, first compound 0.01 µM
  viability, T/C: 49.1%
[5]
  viability, T/C: 64.5%
[6]
  viability, T/C: 58.6%
Second compound 0.1 µM, first compound 0.000316 µM
  viability, T/C: 40.4%
Second compound 0.1 µM, first compound 0.001 µM
  viability, T/C: 42.6%
Second compound 0.1 µM, first compound 0.00316 µM
  viability, T/C: 42%
Second compound 0.1 µM, first compound 0.01 µM
  viability, T/C: 44.3%
[7]
  viability, T/C: 47.7%
[8]
  viability, T/C: 42.1%
Second compound 0.316 µM, first compound 0.000316 µM
  viability, T/C: 26.7%
Second compound 0.316 µM, first compound 0.001 µM
  viability, T/C: 27%
Second compound 0.316 µM, first compound 0.00316 µM
  viability, T/C: 28%
Second compound 0.316 µM, first compound 0.01 µM
  viability, T/C: 28%
[9]
  viability, T/C: 30.8%
[10]
  viability, T/C: 29%
Second compound 1 µM, first compound 0.000316 µM
  viability, T/C: 20.4%
Second compound 1 µM, first compound 0.001 µM
  viability, T/C: 20.4%
Second compound 1 µM, first compound 0.00316 µM
  viability, T/C: 24.1%
Second compound 1 µM, first compound 0.01 µM
  viability, T/C: 24.2%
[11]
  viability, T/C: 27.8%
[12]
  viability, T/C: 25.9%

## CNC(=O)c1ccc(N2C(=S)N(c3ccc(C#N)c(C(F)(F)F)c3)C(=O)C2(C)C)cc1F + CC(Nc1ccc2c(c1)OCCn1cc(N3C(=O)OCC3C(F)F)nc1-2)C(N)=O
Second compound 0.00316 µM
  IC50: > 10000 nM
Second compound 0.01 µM
  IC50: > 10000 nM
Second compound 0.0316 µM
  IC50: 3830 nM
Second compound 0.1 µM
  IC50: < 31.6 nM
Second compound 0.316 µM
  IC50: < 31.6 nM
Second compound 1 µM
  IC50: < 31.6 nM
[1]
  viability, T/C: 82.6%
[2]
  viability, T/C: 88%
Second compound 0.00316 µM, first compound 0.316 µM
  viability, T/C: 82.4%
Second compound 0.00316 µM, first compound 1 µM
  viability, T/C: 93.6%
Second compound 0.00316 µM, first compound 3.16 µM
  viability, T/C: 81%
Second compound 0.00316 µM, first compound 10 µM
  viability, T/C: 69.5%
[3]
  viability, T/C: 75.1%
[4]
  viability, T/C: 73.8%
Second compound 0.01 µM, first compound 0.316 µM
  viability, T/C: 77%
Second compound 0.01 µM, first compound 1 µM
  viability, T/C: 74.5%
Second compound 0.01 µM, first compound 3.16 µM
  viability, T/C: 78.3%
Second compound 0.01 µM, first compound 10 µM
  viability, T/C: 62.3%
[5]
  viability, T/C: 55.2%
[6]
  viability, T/C: 56.7%
Second compound 0.0316 µM, first compound 0.316 µM
  viability, T/C: 57%
Second compound 0.0316 µM, first compound 1 µM
  viability, T/C: 56.6%
Second compound 0.0316 µM, first compound 3.16 µM
  viability, T/C: 53.1%
Second compound 0.0316 µM, first compound 10 µM
  viability, T/C: 33.8%
[7]
  viability, T/C: 39.1%
[8]
  viability, T/C: 41.5%
Second compound 0.1 µM, first compound 0.316 µM
  viability, T/C: 38.1%
Second compound 0.1 µM, first compound 1 µM
  viability, T/C: 39.9%
Second compound 0.1 µM, first compound 3.16 µM
  viability, T/C: 38%
Second compound 0.1 µM, first compound 10 µM
  viability, T/C: 30.5%
[9]
  viability, T/C: 28.2%
[10]
  viability, T/C: 27.9%
Second compound 0.316 µM, first compound 0.316 µM
  viability, T/C: 25.2%
Second compound 0.316 µM, first compound 1 µM
  viability, T/C: 28.5%
Second compound 0.316 µM, first compound 3.16 µM
  viability, T/C: 24.8%
Second compound 0.316 µM, first compound 10 µM
  viability, T/C: 22.1%
[11]
  viability, T/C: 20.8%
[12]
  viability, T/C: 21.3%
Second compound 1 µM, first compound 0.316 µM
  viability, T/C: 24.9%
Second compound 1 µM, first compound 1 µM
  viability, T/C: 18.5%
Second compound 1 µM, first compound 3.16 µM
  viability, T/C: 20.1%
Second compound 1 µM, first compound 10 µM
  viability, T/C: 18.7%
